Data published in EP4144350B1, “TREATMENT OR PREVENTION OF VASCULAR MALFORMATION” (Universitätsmedizin Greifswald, priority 2021, dated 2023).

How the values were obtained:
[1] = test system: human tumour cell lines; conditions: cited from earlier work
[2] = test system: CCM3^-/- CI-huVECs in co-culture with CCM3^+/+ CI-huVECs; experiment: Spike-in co-culture assay / apoptosis compound library screening: CCM3 knockout allele frequency by amplicon deep sequencing; type: cell-based, human
Experimental: Clonally expanded CI-huVEC lines with biallelic loss-of-function variants in the first coding exon of CCM3 have been described before or were established according to a published CRISPR/Cas9 genome editing protocol. Blood outgrowth endothelial cells (BOECs) were cultured in EGM-2 medium (Lonza, Basel, Switzerland) supplemented with 18 % FCS. With the approval of the local ethics committee (University Medicine Greifswald, Germany; No.: BB 047/14a), CCM1^-/- BOECs had been established previously from CCM1^+/- BOECs of a CCM1 mutation carrier with CRISPR/Cas9 genome editing. Mutant and wild-type ECs were co-cultured in 96-well plates under standard culture conditions with the indicated mutant-to-wild-type ratios. 2500 cells were seeded per well.
An apoptosis compound library with 189 small molecules that target apoptosis, survival and proliferation was used in a high throughput screening approach (HY-L003[HY-LD-000001651]; MedChem Express, Monmouth Junction, NJ, USA). Co-cultures were treated with 10 µM of each substrate for six days. Compounds were added 5 h and 3 days after cell seeding.
NSC59984 (IUPAC: (2E)-1-(4-Methyl-1-piperazinyl)-3-(5-nitro-2-furyl)-2-propen-1-one, HY19726, MedChem Express), was used for individual experiments with the indicated concentrations.
The fraction of mutant alleles in co-culture were analysed by amplicon deep sequencing or T7EI cleavage assay. In brief, genomic target regions were first amplified by PCR. For T7E1 cleavage assays, heteroduplexes were formed and digested with T7EI enzyme (New England Biolabs, Frankfurt am Main, Germany). Cleavage products were visualised by gel electrophoresis and analysed with the Image Lab software (v6.0, Bio-Rad, Hercules, CA, USA). For NGS analysis, sequencing adapters and individual barcodes were introduced in a second round of PCR [7]. Sequencing libraries were pooled and sequenced on a MiSeq instrument with 2 x 150 cycles (Illumina, San Diego, CA, USA). The data were analysed with the SeqNext software (JSI Medical Systems, Ettenheim, Germany).

[3] = test system: CCM3^-/- CI-huVECs; experiment: CyQuant cell proliferation assay combined with mutant allele frequencies, co-culture (mutant cells); type: cell-based, human; conditions: six days
Experimental: Clonally expanded CI-huVEC lines with biallelic loss-of-function variants in the first coding exon of CCM3 have been described before or were established according to a published CRISPR/Cas9 genome editing protocol. Blood outgrowth endothelial cells (BOECs) were cultured in EGM-2 medium (Lonza, Basel, Switzerland) supplemented with 18 % FCS. With the approval of the local ethics committee (University Medicine Greifswald, Germany; No.: BB 047/14a), CCM1^-/- BOECs had been established previously from CCM1^+/- BOECs of a CCM1 mutation carrier with CRISPR/Cas9 genome editing. Mutant and wild-type ECs were co-cultured in 96-well plates under standard culture conditions with the indicated mutant-to-wild-type ratios. 2500 cells were seeded per well. The proliferation rate of mutant and wild-type ECs in monoculture was quantified with the CyQuant® Cell Proliferation Assay Kit (C7026, Thermo Fisher Scientific). To discriminate the proliferation rates of CCM3^+/+ and CCM3^-/- CI-huVEC in co-culture, the CyQuant® Cell Proliferation Assay results were combined with mutant allele frequencies that had been determined by amplicon deep sequencing. To analyse their sensitivity to apoptosis, mutant and wild-type ECs were seeded in 96-well plates with 15.000 cells per well, and treated with staurosporine ([…], Sigma-Aldrich, St. Louis, MO, USA) 24 h later. The Caspase-3 DEVD-R110 Fluorometric HTS Assay Kit (30009, Biotium, Fremont, CA, USA), the Cell Meter^TM Caspase 8 Activity Apoptosis Assay Kit (22798, AAT Bioquest, Sunnyvale, CA, USA), and the Cell Meter^TM Caspase 9 Activity Apoptosis Assay Kit (22799, AAT Bioquest) were used following the manufacturer's instructions.

[4] = test system: colon-tumour xenografts; conditions: cited from earlier work
[5] = test system: CCM3^-/- CI-huVECs; experiment: Targeted RNA sequencing (apoptosis and cell death panel); type: cell-based, human; conditions: 10 µM, 24 h
From the text: RNA was extracted using the PeqGold TriFast reagent (Peqlab-VWR, Radnor, PA, USA) and purified using the Direct-zol RNA MiniPrep Plus Kit (Zymo Research, Irvine, CA, USA). A Qubit 4.0 (Thermo Fisher Scientific) and the Qubit RNA BR Assay Kit (Q10211, Thermo Fisher Scientific) were used to measure RNA concentrations. RNA sample integrity was controlled on a 2100 Bioanalyzer using the RNA 6000 Nano Kit (Agilent, Santa Clara, CA, USA). A QIAseq Targeted Human Apoptosis and Cell Death RNA Panel (RHS-002Z, QIAGEN, Hilden, Germany) was used to prepare RNA sequencing libraries according to the manufacturer's instructions. After quality control with the High Sensitivity DNA Kit on a 2100 Bioanalyzer instrument (Agilent), the pooled libraries were sequenced on a MiSeq (Illumina) with 1x151 cycles. Differential gene expression of RNA sequencing data was carried out using the QIAseq Targeted RNA Primary and Secondary Analysis Tool (QIAGEN).

CN1CCN(C(=O)/C=C/c2ccc([N+](=O)[O-])o2)CC1 [NSC59984, (E)-1-(4-methylpiperazin-1-yl)-3-(5-nitrofuran-2yl)prop-2-en-1-one]
Cell growth of tumour cell lines [1]: reduce cell growth in various human tumour cell lines
Genotoxic effects on normal cells [1]: minimal genotoxic effects on normal cells
Mutant EC expansion at high spike-in ratios ([2]; 10 µM (Fig. 20)): blocked mutant EC expansion even at high spike-in ratios but did not decrease mutant allele frequencies
Clonal expansion of mutant ECs after end of treatment ([2]; 10 µM for six days, then seven additional days without treatment (Fig. 21)): still efficiently blocked after the end of NSC59984 treatment
Knockout allele frequencies ([2]; 10 µM of each compound, six days, added 5 h and 3 days after seeding, DMSO-treated co-culture controls 33.5 %): 10.2%
Mutant EC expansion after pretreatment of CCM3^-/- CI-huVECs before co-culture ([2]; 6 days co-culture without additional treatment (Fig. 22)): completely prevented mutant EC expansion
Clonal expansion of CCM3^-/- CI-huVECs in co-culture ([2]; different concentrations (Fig. 18)): blocked the clonal expansion of CCM3^-/- CI-huVECs in a concentration-dependent manner
Relative proliferation rate of CCM3^-/- CI-huVECs ([3]; 1 µM): 4632%
Relative proliferation rate of CCM3^-/- CI-huVECs ([3]; 5 µM): 1671%
Relative proliferation rate of CCM3^-/- CI-huVECs ([3]; 10 µM): 419%
Adverse effects in xenograft mice [4]: Without apparent adverse effects
Growth of colon-tumour xenografts ([4]; mice): repressed the growth of colon-tumour xenografts in mice
Expression of CDKN1A (p21), FC (fold change NSC59984 vs. DMSO treatment) [5]: 2.33
Expression of GADD45A, FC (fold change NSC59984 vs. DMSO treatment) [5]: 2.11
Expression of apoptosis-related p53 target genes BBC3 (PUMA) or PMAIP1 (Noxa) [5]: unaffected
